Measured values published in patent US20240343753A1, “THERAPEUTIC COMPOUNDS” (Regents of the University of Minnesota, priority 2023, published 2024).

Columns and labels:
K562 cells = assay: 5hmC dot blot in K562 cells treated with inhibitor; format: cell-based, human; conditions: 5 μM compound, 24 hours, genomic DNA dot blot, normalized to DMSO
Method: Cells were grown in MEM media supplemented with 10% FBS (Gibco by Life Technologies TM, #16140-071) and AntibioticAntimycotic (Gibco by Life Technologies TM, #15240062) at 37° C. under 5% CO2. Solutions of inhibitors were prepared in dimethyl sulfoxide (DMSO) were incubated with cells at the specific concentration and duration prior to collection and extraction of genomic DNA.
For cellular assays, genomic DNA was extracted using DNA Blood/Tissue Kit, denatured, and subjected to dot blotting analysis using antibody against 5hmC (Active Motif, #39769) as previously described.^22 Briefly, 2 μg of purified DNA was denatured at 100° C. and mixed 1:1 with 2M NaOAc. DNA was loaded to the membrane, washed, and blocked with 5% NFM. Primary antibody for 5-hmC was incubated overnight and detected by fluorescence. The DNA spotted membrane was then stained with 0.02% methylene blue in 0.5 M sodium acetate (pH 5.0) for DNA loading control. The same protocol was followed for in vitro assays.
K562 cells, a TET proficient leukemia model, were treated with 5 μM of respective compound for 24 hours. Genomic DNA was extracted and 5hmC levels were quantified via dot blot (FIG. 1A and FIG. 1B).

[1] = molecular target: T1, recombinant human TET1 catalytic domain (Homo sapiens, UniProt Q8NFU7); assay: In vitro TET1 activity assay, LC-MS/MS quantitation of 5hmC; format: biochemical; conditions: for reduced hmC production in comparison to DMSO control: 30 minute incubation; for TET inhibition (in words): TET1 catalytic domain, hemimethylated oligomer substrate, FIG. 2
T1 construct: enzymatically active catalytic domain of human TET1; purchased Active Motif 31417
T1 sequence (Q8NFU7 1418-2136 limits assumed): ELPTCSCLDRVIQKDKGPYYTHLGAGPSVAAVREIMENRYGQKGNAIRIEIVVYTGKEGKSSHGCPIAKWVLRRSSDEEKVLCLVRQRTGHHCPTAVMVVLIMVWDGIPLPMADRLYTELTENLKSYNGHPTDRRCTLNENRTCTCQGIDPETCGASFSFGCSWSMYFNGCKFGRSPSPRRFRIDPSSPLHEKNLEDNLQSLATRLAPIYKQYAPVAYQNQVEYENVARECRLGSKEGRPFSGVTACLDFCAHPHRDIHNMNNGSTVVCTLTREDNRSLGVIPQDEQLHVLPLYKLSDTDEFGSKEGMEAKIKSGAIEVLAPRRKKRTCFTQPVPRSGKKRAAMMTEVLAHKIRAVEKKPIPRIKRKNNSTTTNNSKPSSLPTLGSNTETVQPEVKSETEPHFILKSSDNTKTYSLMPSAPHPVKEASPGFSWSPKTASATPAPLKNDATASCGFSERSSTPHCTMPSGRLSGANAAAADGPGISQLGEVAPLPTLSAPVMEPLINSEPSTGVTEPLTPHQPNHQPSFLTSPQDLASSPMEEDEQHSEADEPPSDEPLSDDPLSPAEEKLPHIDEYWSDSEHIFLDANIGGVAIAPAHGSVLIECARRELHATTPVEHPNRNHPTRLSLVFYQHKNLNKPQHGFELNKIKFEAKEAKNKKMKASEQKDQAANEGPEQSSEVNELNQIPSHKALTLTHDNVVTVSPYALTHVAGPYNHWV
Method: (§1) For in vitro TET assays, 10 pmol of 16-mer hemi-methylated synthetic dsDNA oligomer designed after the Rassfla tumor suppressor gene promotor (5′-AATTAGAA[5meC]GCTCCTT3′) was incubated with 2×TET reaction buffer (50 mM HEPES [pH 7.9], 100 mM NaCl, 75 μM Fe(NH4)2(SO4)2, 2 mM ascorbate, 10 μM α-ketoglutarate, 1 mM DTT), recombinant human TET1 or TET2 catalytic domain (0.2 μg, 2.3 pmol, 115 nM) and 5% DMSO (or inhibitor in DMSO) on a 20 μL scale. Timing was achieved by withholding protein until the ‘start’ of the incubation window. Reactions were completed on a dry block at 37° C. for 30 minutes. Reactions were terminated at the ‘end’ of the incubation window by transferring reaction tubes to dry ice to snap-freeze the reaction until all replicates were completed. Upon completion, all samples were heat-inactivated at 90° C. for 10 minutes and then dried entirely in SpeedVac concentrator. Sample were then prepared for LCMS or dot blot analysis. HPLC-ESI-MS/MS quantitation of 5mC and 5hmC.
Quantitation of 5hmC is based on methodology previously described in Seiler et al., with slight modification.^21 Dried enzymatic reaction samples were reconstituted with mQ-water and spiked with 1 pmol each of 5-Methyl-2′-deoxycytidine-d3 and 5-(Hydroxymethyl)-2′deoxycytidine-d3. Nucleotide digestion enzyme mix and buffer were added per product guidelines on a 20 μL scale. Samples were digested for 60 min at 37° C. on a dry block. Following digestion, samples were filtered on nanosep 10K Omega filters. The samples were then dried entirely and resuspended in 100 μL mQ-water for offline HPLC cleanup to enrich 5hmC. An Atlantis T3 column (Waters, 4.6×150 mm, 3 μm) was eluted at a flow of 0.9 mL/min with a linear gradient previously described of 5 mM NH4CHO2 buffer, pH 4.0 (A) and MeOH (B). Fractions containing 5meC and 5hmC were collected and pooled before analysis by isotope dilution HPLC-ESI-MS/MS. Pooled samples were dried and reconstituted in 2 mM ammonium formate buffer (NH4CHO2) with a Dionex Ultimate 3000UHPLC (Thermo Fisher) interfaced with a Thermo TSQ Quantis mass spectrometer (Thermo Fisher) flowing 2 mM NH4CHO2 (A) and ACN (B) at 15 μL/min through a Zorbax SB-C18 column (Agilent, 0.5×150 mm, 3 μm) with the gradients as previously described. 5meC and 5-d3-meC eluted at 5.1 minutes while 5hmC and 5-d3-hmC eluted at 3.5 minutes. Quantitation was completed monitoring MS/MS transitions m/z 242.1 [M+H^+]→m/z 126.1 [M-deoxyribose+H^+] for 5meC, m/z 245.2 [M+H^+]→m/z 129.0 [M-deoxyribose+H^+] for 5-d3-meC, m/z 258.1 [M+H^+]→m/z 142.1 [M-deoxyribose+H^+] for 5hmC, m/z 261.1 [M+H^+]→m z 145.1 [M-deoxyribose+H^+] for 5-d3-hmC. […]
Compounds 13b and 15 were taken forward and incubated with recombinant TET1 and TET2 protein to further evaluate their potential TET inhibitory activity. The compounds 13b and 15 were taken forward and evaluated in an in vitro TET activity assay with the enzymatically active catalytic domain of human TET1 using a hemimethylated synthetic oligomer substrate. Following a 30 minute enzymatic incubation time in the presence or absence of inhibitor, the reactions were halted through denaturation, and levels of 5mC 5hmC were quantified via LCMS/MS via direct isotope dilution (Seiler, C. L., et al., Biochemistry 2018, 57 (42), 6061-6069).

[2] = molecular target: T2, recombinant human TET2 catalytic domain (Homo sapiens, UniProt Q6N021); assay: In vitro TET2 activity assay, LC-MS/MS quantitation; format: biochemical; conditions: 30 minute incubation, FIG. 3; read-out: IC50, TET2 mediated conversion of 5mC to 5hmC
T2 construct: recombinant human TET1 or TET2 catalytic domain; purchased Active Motif 31418
Method: as §1, with “Upon completion, all samples were heat-inactivated at 90° C. for 10 minutes and then dried entirely in SpeedVac concentrator. Sample were then prepared for LCMS or dot blot analysis.” left out
Quantitation of 5hmC is based on methodology previously described in Seiler et al., with slight modification.^21 Dried enzymatic reaction samples were reconstituted with mQ-water and spiked with 1 pmol each of 5-Methyl-2′-deoxycytidine-d3 and 5-(Hydroxymethyl)-2′deoxycytidine-d3. […] Quantitation was completed monitoring MS/MS transitions m/z 242.1 [M+H^+]→m/z 126.1 [M-deoxyribose+H^+] for 5meC, m/z 245.2 [M+H^+]→m/z 129.0 [M-deoxyribose+H^+] for 5-d3-meC, m/z 258.1 [M+H^+]→m/z 142.1 [M-deoxyribose+H^+] for 5hmC, m/z 261.1 [M+H^+]→m z 145.1 [M-deoxyribose+H^+] for 5-d3-hmC. […]

## COC(=O)/C=C/C(=O)N(O)CCC#Cc1cn([C@H]2C[C@H](O)[C@@H](CO)O2)c(=O)nc1N [Compound 11, methyl (E)-4-((4-(4-amino-1-((2R,4S,5R)-4-hydroxy-5-(hydroxymethyl)-tetrahydrofuran-2-yl)-2-oxo-1,2-dihydropyrimidin-5-yl)but-3-yn-1-yl)(hydroxy)amino)-4-oxobut-2-enoate]
K562 cells
  lowered the relative levels of 5hmC: 30±8%

## Nc1nc(=O)n([C@H]2C[C@H](O)[C@@H](CO)O2)cc1C#CCCN(O)C(=O)CCC(=O)O [Compound 13b, 4-((4-(4-amino-1-((2R,4S,5R)-4-hydroxy-5-(hydroxymethyl)tetrahydrofuran-2-yl)-2-oxo-1,2-dihydropyrimidin-5-yl)but-3-yn-1-yl)(hydroxy)amino)-4-oxobutanoic acid]
K562 cells
  lowered the relative levels of 5hmC: 55±20%
[1]; 10 μM inhibitor
  reduced hmC production in comparison to DMSO control: 22±5%
[1]; 100 μM inhibitor
  reduced hmC production in comparison to DMSO control: 30±4%
[1]; 500 μM inhibitor
  reduced hmC production in comparison to DMSO control: 85±3%
[1]
  TET inhibition (in words): dose-dependent TET inhibition
[2]
  IC50: ~1 mM

## Nc1nc(=O)n([C@H]2C[C@H](O)[C@@H](CO)O2)cc1C#CCCNC(=O)/C=C/C(=O)O [Compound 14, (E)-4-((4-(4-amino-1-((2R,4S,5R)-4-hydroxy-5-(hydroxymethyl)tetrahydrofuran-2-yl)-2-oxo-1,2-dihydropyrimidin-5-yl)but-3-yn-1-yl)amino)-4-oxobut-2-enoic acid]
K562 cells
  lowered the relative levels of 5hmC: 26±21%

## Nc1nc(=O)n([C@H]2C[C@H](O)[C@@H](CO)O2)cc1C#CCCN(O)C(=O)/C=C/C(=O)O [Compound 15, (E)-4-((4-(4-amino-1-((2R,4S,5R)-4-hydroxy-5-(hydroxymethyl)tetrahydrofuran-2-yl)-2-oxo-1,2-dihydropyrimidin-5-yl)but-3-yn-1-yl)(hydroxy)amino)-4-oxobut-2-enoic acid]
K562 cells
  lowered the relative levels of 5hmC: 47±45%
[1]
  TET inhibition (in words): dose-dependent TET inhibition
